Results: patent US12070594B2, “Biomedical electrode with anti-microbial properties” (Compass Health Brands Corp., priority 2018, dated 2024)

Assays:
Format in all cases: cell-based
[1] = test system: S. aureus ATCC 25923; experiment: Antibiotic susceptibility, reference microorganism
[2] = test system: S. aureus ATCC 33592; experiment: Antibiotic Susceptibility of the Test Microorganisms
[3] = test system: P. aeruginosa ATCC 27853; experiment: Antibiotic susceptibility, reference microorganism
[4] = test system: E. coli ATCC 25922; experiment: Antibiotic susceptibility, reference microorganism
[5] = test system: A. baumannii ATCC BAA-1605; experiment: Antibiotic Susceptibility of the Test Microorganisms
[6] = test system: E. cloacae ATCC BAA-2468; experiment: as above
[7] = test system: E. faecalis ATCC 51575; experiment: as above
[8] = susceptibility ≥21 mm, resistance ≤17 mm (CLSI M100)

Structure (SMILES) | Reference Microorganism Diameter [1] [mm] | Test Microorganism Demonstrates Resistance? [2] | Test Microorganism Diameter ([2]; susceptibility ≥13 mm, resistance ≤10 mm (CLSI M100)) [mm] | Reference Microorganism Diameter [3] [mm] | Reference Microorganism Diameter [4] [mm] | Test Microorganism Demonstrates Resistance? [5] | Test Microorganism Diameter [5, 8] [mm] | Test Microorganism Demonstrates Resistance? [6] | Test Microorganism Diameter [6, 8] [mm] | Test Microorganism Demonstrates Resistance? [7] | Test Microorganism Diameter ([7]; susceptibility ≥17 mm, resistance ≤14 mm (CLSI M100)) [mm]
Cc1onc(-c2ccccc2)c1C(=O)N[C@@H]1C(=O)N2[C@@H]1SC(C)(C)[C@@H]2C(=O)O [Oxocillin] | 51.9 | Yes | 9.2 |  |  |  |  |  |  |  | 
CCN1CCN(C(=O)N[C@@H](C(=O)N[C@@H]2C(=O)N3[C@@H]2SC(C)(C)[C@@H]3C(=O)O)c2ccccc2)C(=O)C1=O [Piperacillin] |  |  |  | 26.2 | 25.3 | Yes | 6.5 | Yes | 6.5 |  | 
CN[C@H](CC(C)C)C(=O)N[C@H]1C(=O)N[C@@H](CC(N)=O)C(=O)N[C@H]2C(=O)N[C@H]3C(=O)N[C@H](C(=O)N[C@H](C(=O)O)c4cc(O)cc(O)c4-c4cc3ccc4O)[C@H](O)c3ccc(c(Cl)c3)Oc3cc2cc(c3O[C@@H]2O[C@H](CO)[C@@H](O)[C@H](O)[C@H]2O[C@H]2C[C@](C)(N)[C@H](O)[C@H](C)O2)Oc2ccc(cc2Cl)[C@H]1O [Vancomycin] | 21.2 |  |  |  |  |  |  |  |  | Yes | 11.3
